Measured values from article PMC7933930, “Development of a small molecule that corrects misfolding and increases secretion of Z α1‐antitrypsin” (EMBO Molecular Medicine, 2021).
Where two headings read alike, the source gives them in different places.

Tests used:
Monoamine oxidase A = Monoamine oxidase A (Homo sapiens, UniProt P21397); assay: Off‐target panel: Monoamine oxidase A; assay type: biochemical; conditions: Inhibition, read-out: Mean (PXC50)
Description: (§1) GSK716 selectivity and PK properties were profiled in order to investigate the suitability of GSK716 for progression into in vivo studies and the potential for taking it forward as a clinical candidate for testing in humans. Since GSK716 results in loss of inhibitory activity of α1‐antitrypsin, the effect of the compound was assessed on other closely related serpins. […] Furthermore, there were no off‐target effects in a panel of assays considered predictive of known safety liabilities that precluded further development of GSK716 (Table EV1).

P-gp (MDR1) = assay: Permeability in MDR1‐MDCK cells with pgp inhibitor; assay type: in vitro ADME; conditions: dog
Description: Permeability in MDR1‐MDCK cells in the presence of pgp inhibitor GF120918 was high at 248 and 240 nm/s for the apical to basal and basal to apical directions, respectively (N53531‐23 for DI).
MDR1‐MDCK cells were used between passage numbers 6–30. Cells were seeded onto Millipore Multiscreen Transwell plates at 3.4 × 10^5 cells/cm^2. The cells were cultured in DMEM and media was changed on day 3. On day 4 the permeability study was performed. Cell culture and assay incubations were carried out at 37°C in an atmosphere of 5% v/v CO2 with a relative humidity of 95%. On the day of the assay, the monolayers were prepared by rinsing both apical and basolateral surfaces twice with Hanks Balanced Salt Solution (HBSS) at the desired pH warmed to 37°C. Cells were then incubated with HBSS at the desired pH in both apical and basolateral compartments for 40 min to stabilise physiological parameters. Where applicable, a P‐gp inhibitor (elacridar, 2 µM) was included on both sides of the monolayer for the equilibration period. For assessment of apical‐basolateral permeability, HBSS was removed from the apical compartment and replaced with test compound dosing solution. The apical compartment insert was then placed into a companion plate containing fresh buffer (containing 0.5% v/v DMSO or, where applicable, a P‐gp inhibitor, maintaining a 0.5% v/v DMSO concentration). […]

PI3Kg = PI3Kg (Homo sapiens, UniProt P48736); assay: Off‐target panel: PI3Kg; assay type: biochemical; conditions: Inhibition, read-out: Mean (PXC50)
Chain of PI3Kg (P48736 whole entry): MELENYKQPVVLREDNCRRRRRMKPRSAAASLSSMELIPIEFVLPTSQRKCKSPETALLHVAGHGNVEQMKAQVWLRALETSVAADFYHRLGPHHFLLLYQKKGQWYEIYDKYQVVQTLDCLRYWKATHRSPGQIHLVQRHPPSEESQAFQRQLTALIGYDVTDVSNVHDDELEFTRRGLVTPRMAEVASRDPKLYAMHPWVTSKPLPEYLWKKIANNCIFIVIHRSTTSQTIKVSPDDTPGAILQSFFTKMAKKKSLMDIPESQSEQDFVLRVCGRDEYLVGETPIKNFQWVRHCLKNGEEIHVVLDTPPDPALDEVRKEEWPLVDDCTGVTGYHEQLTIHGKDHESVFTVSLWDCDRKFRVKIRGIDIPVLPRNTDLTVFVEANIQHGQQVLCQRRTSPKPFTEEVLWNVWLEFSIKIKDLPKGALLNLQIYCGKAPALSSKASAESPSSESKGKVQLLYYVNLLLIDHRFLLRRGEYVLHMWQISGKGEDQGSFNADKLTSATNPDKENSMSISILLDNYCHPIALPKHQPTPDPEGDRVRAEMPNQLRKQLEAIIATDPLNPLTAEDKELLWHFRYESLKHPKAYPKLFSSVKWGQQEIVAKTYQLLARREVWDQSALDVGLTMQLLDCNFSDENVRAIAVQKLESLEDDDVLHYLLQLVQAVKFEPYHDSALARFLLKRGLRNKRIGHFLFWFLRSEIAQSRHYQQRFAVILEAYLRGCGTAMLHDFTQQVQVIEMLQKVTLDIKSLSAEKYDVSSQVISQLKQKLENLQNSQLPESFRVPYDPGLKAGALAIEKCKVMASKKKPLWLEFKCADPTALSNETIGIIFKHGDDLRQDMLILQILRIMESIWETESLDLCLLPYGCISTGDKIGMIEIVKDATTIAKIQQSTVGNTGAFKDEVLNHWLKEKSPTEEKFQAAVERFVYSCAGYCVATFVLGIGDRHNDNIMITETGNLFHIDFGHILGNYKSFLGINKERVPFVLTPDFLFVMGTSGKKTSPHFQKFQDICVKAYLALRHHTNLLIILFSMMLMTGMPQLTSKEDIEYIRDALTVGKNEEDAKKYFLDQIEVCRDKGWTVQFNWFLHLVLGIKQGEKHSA
Description: as §1

Z α1‐antitrypsin = Z α1‐antitrypsin (Homo sapiens, UniProt P01009, E366K); assay: Rapid refolding by snap dilution, non‐denaturing PAGE; assay type: biochemical; design: purified from the plasma of Z α1‐antitrypsin homozygotes; from tissue; host or cells: human plasma of Z α1-antitrypsin homozygotes; conditions: snap dilution from denaturant
Chain of Z α1‐antitrypsin (P01009 25-418 E366K): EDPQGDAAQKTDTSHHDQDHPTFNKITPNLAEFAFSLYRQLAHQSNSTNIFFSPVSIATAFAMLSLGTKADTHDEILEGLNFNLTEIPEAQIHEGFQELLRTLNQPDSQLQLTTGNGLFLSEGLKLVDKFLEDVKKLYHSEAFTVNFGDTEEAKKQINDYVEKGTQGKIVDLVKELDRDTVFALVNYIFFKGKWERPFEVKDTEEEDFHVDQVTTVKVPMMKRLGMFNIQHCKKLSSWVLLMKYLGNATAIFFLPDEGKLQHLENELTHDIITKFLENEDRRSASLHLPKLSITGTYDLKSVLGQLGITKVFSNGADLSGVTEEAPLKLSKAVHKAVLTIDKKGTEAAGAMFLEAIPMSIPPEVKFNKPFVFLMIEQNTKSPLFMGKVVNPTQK

NULL CHO-K1 = assay: Off‐target panel: NULL CHO-K1 Agonist (DRX); assay type: cell-based; conditions: Cricetulus griseus, read-out: Mean (PXC50)
Description: as §1

M and Z α1‐antitrypsin = assay: Heat‐induced oligomerisation, constant temperature, non‐denaturing PAGE; assay type: biochemical, human; conditions: constant‐temperature experiment, 4 h, 48 to 65°C
Description: Polymerisation of α1‐antitrypsin involves transition through a transient intermediate state known as M*, that is readily populated by the Z variant (Dafforn et al, 1999; Knaupp et al, 2010). The M* conformational ensemble appears to be a distinct species between the native state conformation and that of the final polymer. One of the hallmarks of M* is its recognition by environment‐sensitive fluorescent reporter dyes. Thermal shift assays that make use of the dye SYPRO Orange report the stability of the protein native state against heat‐induced unfolding. […] Native state stability can also be probed by equilibrium unfolding using chemical denaturants, where a peak in bis‐ANS fluorescence corresponds with a maximally populated unfolding intermediate (James & Bottomley, 1998). […] The association of GSK716 induced a marked quenching and blue‐shift of the α1‐antitrypsin intrinsic tryptophan fluorescence spectrum (Fig 4D, inset). The rate of change in fluorescence during association of 10µM GSK716 was proportional to the propensity of α1‐antitrypsin mutants to form polymers in vivo: inert (M), mild (S), moderate (Baghdad) and severe (Z) α1‐antitrypsin (Fig 4D, top and bottom). […]

[1] = target: Norepinephrine transporter (Homo sapiens, UniProt P23975); assay: Off‐target panel: Norepinephrine transporter (DRX); assay type: cell-based
Chain of Norepinephrine transporter (P23975 whole entry, species assumed): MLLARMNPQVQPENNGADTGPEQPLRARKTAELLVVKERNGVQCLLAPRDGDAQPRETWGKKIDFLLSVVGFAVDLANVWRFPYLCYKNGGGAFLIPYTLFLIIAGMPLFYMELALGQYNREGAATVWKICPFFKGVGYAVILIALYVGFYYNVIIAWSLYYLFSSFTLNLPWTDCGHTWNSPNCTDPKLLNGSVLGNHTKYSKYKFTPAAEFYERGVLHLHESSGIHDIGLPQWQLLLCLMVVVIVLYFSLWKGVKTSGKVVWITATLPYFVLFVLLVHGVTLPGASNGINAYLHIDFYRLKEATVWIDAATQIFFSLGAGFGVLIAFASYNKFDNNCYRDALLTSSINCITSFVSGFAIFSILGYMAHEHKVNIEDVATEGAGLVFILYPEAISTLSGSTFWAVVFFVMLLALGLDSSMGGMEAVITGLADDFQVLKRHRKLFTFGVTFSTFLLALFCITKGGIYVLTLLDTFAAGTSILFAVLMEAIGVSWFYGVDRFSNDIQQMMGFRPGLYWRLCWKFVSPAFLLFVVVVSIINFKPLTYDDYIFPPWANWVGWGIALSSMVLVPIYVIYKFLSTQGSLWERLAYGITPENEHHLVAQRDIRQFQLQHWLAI
Description: as §1

Chain of Monoamine oxidase A (P21397 whole entry): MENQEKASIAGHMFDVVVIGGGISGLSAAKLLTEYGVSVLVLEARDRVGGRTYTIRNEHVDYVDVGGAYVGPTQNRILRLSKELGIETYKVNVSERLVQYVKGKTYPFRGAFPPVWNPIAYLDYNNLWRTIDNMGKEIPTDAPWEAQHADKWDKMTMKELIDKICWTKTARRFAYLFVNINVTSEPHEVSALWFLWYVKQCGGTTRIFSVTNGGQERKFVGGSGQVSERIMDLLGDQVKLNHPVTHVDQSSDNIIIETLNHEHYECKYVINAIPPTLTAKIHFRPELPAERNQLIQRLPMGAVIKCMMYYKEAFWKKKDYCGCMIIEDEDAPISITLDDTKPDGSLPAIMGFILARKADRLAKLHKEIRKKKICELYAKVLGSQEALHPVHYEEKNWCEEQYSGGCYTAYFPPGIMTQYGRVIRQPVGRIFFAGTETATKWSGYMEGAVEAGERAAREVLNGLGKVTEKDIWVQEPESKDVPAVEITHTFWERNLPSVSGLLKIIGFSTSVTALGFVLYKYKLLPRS

`CCC[C@@H](NC(=O)c1cccc2c1CC(=O)N2)[C@@H](O)c1cccc(F)c1C` [GSK716] was tested, and the IC50 (Monoamine oxidase A) was greater than 100 µM, the Papp at 60 min (P-gp (MDR1); with pgp inhibitor GF120918, read-out: permeability, apical to basal) was 24.8 ×10⁻⁶ cm/s and the Papp at 60 min (P-gp (MDR1); with pgp inhibitor GF120918, read-out: permeability, basal to apical) was 24 ×10⁻⁶ cm/s. For the same molecule, the IC50 (PI3Kg) was greater than 31.6 µM, the “misfolded by‐product of M* on refolding of the Z variant” value (Z α1‐antitrypsin) was “corrected at stoichiometric concentrations and above” and the EC50 (NULL CHO-K1) was greater than 100 µM. The “temperature of oligomer generation” value (M and Z α1‐antitrypsin) was “oligomers were generated at higher temperatures in the presence of the compound than in its absence” and the IC50 [1] was greater than 100 µM.
